“And” between values parts separate entries of the source, which are not always exact repeats. Identical values can stand only once.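 Method: 48-hour compound exposure of cells in 96-well plates, five concentrations, linear interpolation of endpoints. GI50 marks 50% less growth. TGI: total growth inhibition.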 Where only a bound is given, the exact number is not on record here.

Consider nine molecules from PubChem BioAssay (NCI).

Among the test systems are SF-295 CNS; OVCAR-3 ovarian; HT29 colon; SF-268 CNS; SF-539 CNS; HL-60(TB) leukemia; SK-MEL-5 melanoma; CAKI-1 renal; ACHN renal; LOX IMVI melanoma.
Test in all cases: NCI anticancer screen, dose series, 48 h

In the case of `O=NN(CCCl)C(=O)NCc1ccc[n+]([O-])c1`, the TGI with SF-295 CNS, with OVCAR-3 ovarian, in the assay on HT29 colon, with SF-268 CNS, in the assay on SF-539 CNS and with HL-60(TB) leukemia was more than 100 µM each time. Also, the TGI in the assay on SK-MEL-5 melanoma, in the assay on CAKI-1 renal, with ACHN renal and in the assay on LOX IMVI melanoma was more than 100 µM each time.
On to `CC1(c2ccccc2)CC12C(=O)NC(=O)NC2=O` (configuration not stated), for which the TGI in the assay with SF-295 CNS, in the assay with OVCAR-3 ovarian, in the assay with HT29 colon, with SF-268 CNS, in the assay on SF-539 CNS and with HL-60(TB) leukemia was more than 100 µM each time. For the same molecule, the TGI in the assay on SK-MEL-5 melanoma, with CAKI-1 renal, in the assay on ACHN renal and with LOX IMVI melanoma was more than 100 µM in each case.
As to `CC(C)(C)[Si](C)(C)OC1[C@@H](O[Si](C)(C)C(C)(C)C)[C@@H](CNC(=O)NC(=O)NC(=O)CI)O[C@H]1n1cnc2c(NC(=O)Nc3ccccc3)ncnc21` (some centres not stated), the GI50 with SF-295 CNS was 0.849 µM; in the assay on OVCAR-3 ovarian, 0.215 µM; with HT29 colon, 0.225 µM; in the assay on SF-268 CNS it was 1.5 µM; with SF-539 CNS it was 0.441 µM; in the assay on HL-60(TB) leukemia, 0.0845 µM. Also, the GI50 with SK-MEL-5 melanoma is 8.73 µM; with CAKI-1 renal it was 0.0966 µM; in the assay on ACHN renal, 1.41 µM; in the assay with LOX IMVI melanoma, 0.0864 µM. The TGI with SF-295 CNS stood at 2.36 µM; with OVCAR-3 ovarian, 0.62 µM; with HT29 colon it was 0.771 µM; with SF-268 CNS, 7.04 µM; with SF-539 CNS, 1.16 µM; with HL-60(TB) leukemia, 0.166 µM. For the same molecule, the TGI in the assay on SK-MEL-5 melanoma came out at 16.3 µM; with CAKI-1 renal, 0.406 µM; with ACHN renal it was 9.75 µM; in the assay with LOX IMVI melanoma, 0.155 µM.
As for `O=C1C2c3[nH]c4ccccc4c3C3CCSCC3C2C(=O)N1c1ccccc1` (configuration not stated), the TGI with SF-295 CNS, with OVCAR-3 ovarian, in the assay on HT29 colon, in the assay with SF-268 CNS, in the assay on SF-539 CNS and in the assay on HL-60(TB) leukemia was more than 100 µM in each case. Besides, the TGI in the assay on SK-MEL-5 melanoma, in the assay on CAKI-1 renal, in the assay on ACHN renal and in the assay with LOX IMVI melanoma was more than 100 µM in each case.
With `N.N.NCCCCN.O=C([O-])CC(=O)[O-].O=C([O-])CC(=O)[O-].[Pt+4].[Pt+4]`, the GI50 was more than 100 µM in the assay on SF-295 CNS; more than 100 µM in the assay with OVCAR-3 ovarian; more than 100 µM with HT29 colon; more than 100 µM in the assay on SF-268 CNS; 76.4 µM in the assay on SF-539 CNS; 11.5 µM with HL-60(TB) leukemia. Further, the GI50 was more than 100 µM with SK-MEL-5 melanoma, 79 µM with CAKI-1 renal, 26.9 µM in the assay with ACHN renal and 78.3 µM in the assay on LOX IMVI melanoma. The TGI in the assay with SF-295 CNS, in the assay with OVCAR-3 ovarian, with HT29 colon, with SF-268 CNS, in the assay on SF-539 CNS and in the assay with HL-60(TB) leukemia was more than 100 µM throughout. Further, the TGI in the assay on SK-MEL-5 melanoma, in the assay with CAKI-1 renal, in the assay on ACHN renal and in the assay with LOX IMVI melanoma was more than 100 µM throughout.
With `COc1ccc(/C=C(\C#N)n2nnc3cc(Cl)ccc32)cc1`, the GI50 was 1.18 µM in the assay with SF-295 CNS; 0.253 µM with OVCAR-3 ovarian; 0.334 µM in the assay with HT29 colon; 2 µM in the assay with SF-268 CNS; 1.25 µM in the assay with SF-539 CNS; 0.327 µM in the assay on HL-60(TB) leukemia. The GI50 with SK-MEL-5 melanoma was 2.36 µM; in the assay with CAKI-1 renal it was 0.461 µM; in the assay on ACHN renal, 0.593 µM; in the assay with LOX IMVI melanoma, 0.887 µM. The TGI in the assay with SF-295 CNS was 6.43 µM; with OVCAR-3 ovarian, 0.695 µM; with HT29 colon, more than 100 µM; in the assay with SF-268 CNS, more than 100 µM; in the assay with SF-539 CNS it was 3.5 µM; with HL-60(TB) leukemia, more than 100 µM. The TGI in the assay on SK-MEL-5 melanoma was 10.6 µM; with CAKI-1 renal, more than 100 µM; in the assay with ACHN renal it was more than 43.5 µM; with LOX IMVI melanoma, 9.4 µM.
For the molecule `Cc1c2ncccc2c(C)c2c1[nH]c1ccc(O)cc12`, the GI50 in the assay with SF-295 CNS is 4.53 µM; with OVCAR-3 ovarian, 4.01 µM; with SF-268 CNS, 7.55 µM; in the assay on SF-539 CNS, 4.85 µM; in the assay with HL-60(TB) leukemia it was 3.84 µM and 4.76 µM; in the assay with SK-MEL-5 melanoma, 3.95 µM. The GI50 with ACHN renal was 3.06 µM; with LOX IMVI melanoma, 2.39 µM. Moreover, the TGI in the assay on SF-295 CNS is 10.3 µM; with OVCAR-3 ovarian it was 20 µM; in the assay on HT29 colon it was 32.3 µM; with SF-268 CNS, 19.1 µM; in the assay with SF-539 CNS it was 20.8 µM; in the assay on HL-60(TB) leukemia, 10.5 µM and 15 µM. The TGI in the assay on SK-MEL-5 melanoma is 20.4 µM and 15 µM; with CAKI-1 renal, 15.8 µM; with ACHN renal, 12.4 µM and 18.7 µM; in the assay with LOX IMVI melanoma it was 6.61 µM.
As for `COc1c(O)cc2oc3cc(O)c(CC=C(C)C)c(O)c3c(=O)c2c1C/C=C(\C)CCC=C(C)C`, the GI50 with SF-295 CNS is 4.88 µM; in the assay with OVCAR-3 ovarian, 5.31 µM; in the assay on HT29 colon, 6.34 µM; in the assay on SF-268 CNS, 5.56 µM; with SF-539 CNS, 6.11 µM; with HL-60(TB) leukemia, 7.69 µM. The GI50 is 5.62 µM with SK-MEL-5 melanoma, 4.69 µM with CAKI-1 renal, 4.98 µM in the assay with ACHN renal and 5.49 µM in the assay on LOX IMVI melanoma. Besides, the TGI in the assay on SF-295 CNS stood at 9.6 µM; in the assay with OVCAR-3 ovarian, 9.71 µM; in the assay with HT29 colon, 12.4 µM; with SF-268 CNS it was 10 µM; in the assay on SF-539 CNS, 12 µM; in the assay with HL-60(TB) leukemia, 17.7 µM. In addition, the TGI in the assay with SK-MEL-5 melanoma stood at 10.2 µM; in the assay on CAKI-1 renal, 9.39 µM; with ACHN renal, 9.4 µM; in the assay with LOX IMVI melanoma, 10.5 µM.
Consider `COC1CCC2C(=O)CCCC2O1` (configuration not stated), for which the TGI with SF-295 CNS, in the assay on OVCAR-3 ovarian, in the assay with HT29 colon, in the assay on SF-268 CNS, in the assay with SF-539 CNS and with HL-60(TB) leukemia was more than 100 µM in each case. Further, the TGI in the assay with SK-MEL-5 melanoma, in the assay with CAKI-1 renal and in the assay with ACHN renal was more than 100 µM each time.
